From patent US10407414B2, “Mannose derivatives for treating bacterial infections” (priority 2015, dated 2019)

Tested on: bacterial strain LF82 binding to the glycoprotein BSA-(Mannose)3 (FimH antagonists)
Assay: Bacterial Binding Assay (BBA)
Assay type: cell-based, Escherichia coli
Conditions: read-out: Bacterial Binding Assay IC50 ± SEM
Source text: The purpose of the Bacterial Binding Assay (BBA) is to determine the inhibition activity of selective FimH antagonists on the bacterial strain LF82 binding to the glycoprotein BSA-(Mannose)3.
Below is a list of the Materials used to run the BBA are described below. • 1. LB broth: Supplier: Gibco, #10855 • 2. D-PBS: Supplier: Wisent, #311-425-CL • 3. LB agar plates • 4. 96-well black plate (high binding): Supplier: Costar, #3925 • 5. TopSeal™-A adhesive sealing films; Supplier PerkinElmer, #6005185 • 6. Carbonate-bicarbonate buffer pH 9.6 tablets, Supplier: Medicago, #09-8922-24 • 7. Water, Supplier: Gibco, #15230-162 • 8. Bovine serum albumin (BSA): Supplier: Sigma, #A-7888 • 9. (Man)3-BSA (α1-3, α1-6 Mannotriose-BSA, 1 mg), V-Labs, #NGP1336, lot# HGDX37-169-1 • 10. Tween 20: Supplier: Sigma, #P9416 • 11. Bright-Glo Luciferase Assay System: Supplier: Promega, #E2610 • 12. LF82/Luciferase strain: Invasive ability of an Escherichia coli strain isolated from the ileal mucosa of a patient with Crohn's disease. Boudeau J, Glasser A L, Masseret E, Joly B, Darfeuille-Michaud A, Infect Immun. 1999, 67(9), 4499-509
Solutions and buffers used to run the BBA are described below. • 1. 0.04M carbonate-bicarbonate buffer (coating buffer) • 2. 40 μg/mL BSA-(Man)3: Dissolve 1 mg of (Man)3-BSA in 25 mL of water. • 3. 4000 μg/mL BSA • 4. 40 μg/mL BSA • 5. 1 μg/mL BSA-(Man)3: 150 μL of 40 μg/mL BSA-(Man)3+5.85 mL of 40 μg/mL BSA • 6. 0.5 μg/mL BSA-(Man)3 in 0.02M carbonate-bicarbonate buffer. • 7. 20 μg/mL BSA in 0.02M carbonate-bicarbonate buffer • 8. Blocking buffer (2% BSA/DPBS): 1 g of BSA in 50 mL D-PBS • 9. 2× binding buffer (0.2% BSA/D-PBS): 5 mL of blocking buffer+45 mL D-PBS. • 10. Washing buffer (D-PBS/0.01% Tween 20): 10 μL of Tween 20 in 100 mL D-PBS. • 11. 1× Bright-Glo Luciferase substrate: Dilute 1:1 the Bright-Glo Luciferase Assay System with D-PBS
The experimental protocol used in this example to run the BBA is described below.
Overnight culture of LF82/Luciferase strain: Into two Falcon 50 mL tubes, add 20 mL of LB+20 μL of 50 mg/mL Kanamycin and inoculate with a loop from glycerol stock of the LF82/Luciferase strain. Incubate overnight at 37° C. with no shaking.
Glycoprotein coating of 96-well plates: Add 100 μL/well of 0.5-2 μg/mL BSA-(Man)3. 20 μg/mL BSA is used as the control background. Seal plate using an adhesive sealing film and incubate overnight at room temperature. Wash the 96-well plate three times with 150 μL/well of D-PBS, add 170 μL/well of blocking solution and incubate 45 min (minimum) at room temperature.
Preparation of bacterial suspension: Mix the two cultures tubes (40 mL) and perform a 1:10 dilution in LB (900 μl LB+100 μl culture. Measure optical density (OD) of the bacterial cultures. OD1 ˜5×10^8 cells/mL. Centrifuge LF82 culture for 20 min at 3500 rpm at room temperature. Re-suspend bacterial pellet in D-PBS and centrifuge again for 20 min at 3500 rpm. Re-suspend bacterial pellet in D-PBS to obtain a bacterial concentration of 2×10^9 bacteria/mL. Dilute 1/10 in D-PBS to obtain a final bacterial concentration of 2×10^8 bacteria/mL (=107 bacteria/50 μL). Perform 1/10 serial dilutions in LB of each bacterial suspension, plate 10 μL of dilutions on LB agar plates (final dilutions of 10^−7) and incubate overnight at 37° C. and count CFUs to determine the actual bacteria density in the assay.
Bacterial binding assay: Add 147 μL 2× binding buffer to compound plate (containing 3 μL of compound). After blocking step is performed (at least 45 min), wash plates three times with 200 μL/well of D-PBS. With a 100 μL multichannel manual pipettor, add 50 μL/well of compound diluted in 2× binding buffer. With a 100 μL multichannel manual pipettor, add 50 μL/well of bacterial suspension. Agitate at slow speed for 1 min and incubate 40-75 min at room temperature. Wash 5 times with 150 μL/well of washing buffer and then once with D-PBS. Add 100 μL/well of 1× Bright-Glo Luciferase substrate. […]

SMILES	IC50 [nM]
NC(=O)c1cccc(-c2cc(C#C[C@H]3O[C@H](CO)[C@@H](O)[C@H](O)[C@@H]3O)c3[nH]ncc3c2)c1 [Compound 31, 3-[7-[2-[(2R,3S,4R,5S,6R)-3,4,5-trihydroxy-6-(hydroxymethyl)tetrahydropyran-2-yl]ethynyl]-1H-indazol-5-yl]benzamide]	0.7 ± 0.01
OC[C@H]1O[C@H](C#Cc2cccc3cn[nH]c23)[C@@H](O)[C@@H](O)[C@@H]1O [Compound 1, (2R,3S,4R,5S,6R)-2-(hydroxymethyl)-6-[2-(1H-indazol-7-yl)ethynyl]tetrahydropyran-3,4,5-triol]	98 ± 22
OC[C@H]1O[C@H](C#Cc2cccc3c2NCC3)[C@@H](O)[C@@H](O)[C@@H]1O [Compound 9, (2R,3S,4R,5S,6R)-2-(hydroxymethyl)-6-(2-indolin-7-ylethynyl)tetrahydropyran-3,4,5-triol]	725 ± 155
CCOc1cc(C)c(-c2cc(C#C[C@H]3O[C@H](CO)[C@@H](O)[C@H](O)[C@@H]3O)c3[nH]ncc3c2)cn1 [Compound 54, (2R,3S,4R,5S,6R)-2-[2-[5-(6-ethoxy-4-methyl-3-pyridyl)-1H-indazol-7-yl]ethynyl]-6-(hydroxymethyl)tetrahydropyran-3,4,5-triol]	0.4 ± 0.1
CCc1ccccc1-c1cc(C#C[C@H]2O[C@H](CO)[C@@H](O)[C@H](O)[C@@H]2O)c2[nH]ncc2c1 [Compound 87]	1
CCN(CC)CC#Cc1cc(C#C[C@H]2O[C@H](CO)[C@@H](O)[C@H](O)[C@@H]2O)c2[nH]ncc2c1 [Compound 53, (2R,3S,4R,5S,6R)-2-[2-[5-[3-(diethylamino)prop-1-ynyl]-1H-indazol-7-yl]ethynyl]-6-(hydroxymethyl)tetrahydropyran-3,4,5-triol]	4 ± 0.5
Cc1cnccc1-c1cc(C#C[C@H]2O[C@H](CO)[C@@H](O)[C@H](O)[C@@H]2O)c2[nH]ncc2c1 [Compound 34, (2R,3S,4R,5S,6R)-2-(hydroxymethyl)-6-[2-[5-(3-methyl-4-pyridyl)-1H-indazol-7-yl]ethynyl]tetrahydropyran-3,4,5-triol]	0.4 ± 0.09
OC[C@H]1O[C@H](C#Cc2cc(C3=CCOCC3)cc3cn[nH]c23)[C@@H](O)[C@@H](O)[C@@H]1O [Compound 68, (2R,3S,4R,5S,6R)-2-[2-[5-(3,6-dihydro-2H-pyran-4-yl)-1H-indazol-7-yl]ethynyl]-6-(hydroxymethyl)tetrahydropyran-3,4,5-triol]	1 ± 0.4
Cc1cc(C#C[C@H]2O[C@H](CO)[C@@H](O)[C@H](O)[C@@H]2O)c2cn[nH]c2c1 [Compound 7, (2R,3S,4R,5S,6R)-2-(hydroxymethyl)-6-[2-(6-methyl-1H-indazol-4-yl)ethynyl]tetrahydropyran-3,4,5-triol]	76 ± 26
OC[C@H]1O[C@H](C#Cc2cc(Br)cc3cn[nH]c23)[C@@H](O)[C@@H](O)[C@@H]1O [Compound 16, (2R,3S,4R,5S,6R)-2-[2-(5-bromo-1H-indazol-7-yl)ethynyl]-6-(hydroxymethyl)tetrahydropyran-3,4,5-triol]	8 ± 1
COc1ccc(-c2cc(C#C[C@H]3O[C@H](CO)[C@@H](O)[C@H](O)[C@@H]3O)c3[nH]ncc3c2)cc1 [Compound 30, (2R,3S,4R,5S,6R)-2-(hydroxymethyl)-6-[2-[5-(4-methoxyphenyl)-1H-indazol-7-yl]ethynyl]tetrahydropyran-3,4,5-triol]	0.5 ± 0.2
OC[C@H]1O[C@H](C#Cc2cc(C#Cc3cccnc3)cc3cn[nH]c23)[C@@H](O)[C@@H](O)[C@@H]1O [Compound 46, (2R,3S,4R,5S,6R)-2-(hydroxymethyl)-6-[2-[5-[2-(3-pyridyl)ethynyl]-1H-indazol-7-yl]ethynyl]tetrahydropyran-3,4,5-triol]	3 ± 1
CCCCc1cc(C#C[C@H]2O[C@H](CO)[C@@H](O)[C@H](O)[C@@H]2O)c2[nH]nnc2c1 [Compound 19, (2R,3S,4R,5S,6R)-2-[2-(6-butyl-3H-benzotriazol-4-yl)ethynyl]-6-(hydroxymethyl)tetrahydropyran-3,4,5-triol]	2 ± 0.6
Cc1nc(O)ccc1-c1cc(C#C[C@H]2O[C@H](CO)[C@@H](O)[C@H](O)[C@@H]2O)c2[nH]ncc2c1 [Compound 80, (2R,3S,4R,5S,6R)-2-(hydroxymethyl)-6-[2-[5-(6-hydroxy-2-methyl-3-pyridyl)-1H-indazol-7-yl]ethynyl]tetrahydropyran-3,4,5-triol]	0.2 ± 0.08
CC(C)CNCC#Cc1cc(C#C[C@H]2O[C@H](CO)[C@@H](O)[C@H](O)[C@@H]2O)c2[nH]ncc2c1 [Compound 52, (2R,3S,4R,5S,6R)-2-(hydroxymethyl)-6-[2-[5-[3-(isobutylamino)prop-1-ynyl]-1H-indazol-7-yl]ethynyl]tetrahydropyran-3,4,5-triol]	22 ± 10
OC[C@H]1O[C@H](C#Cc2cc(-c3ccc4c(c3)OCO4)cc3cn[nH]c23)[C@@H](O)[C@@H](O)[C@@H]1O [Compound 37, (2R,3S,4R,5S,6R)-2-[2-[5-(1,3-benzodioxol-5-yl)-1H-indazol-7-yl]ethynyl]-6-(hydroxymethyl)tetrahydropyran-3,4,5-triol]	0.7 ± 0.02
Cn1ncc2cccc(C#C[C@H]3O[C@H](CO)[C@@H](O)[C@H](O)[C@@H]3O)c21 [Compound 13, (2R,3S,4R,5S,6R)-2-(hydroxymethyl)-6-[2-(1-methylindazol-7-yl)ethynyl]tetrahydropyran-3,4,5-triol]	480 ± 150
Cc1cc(-c2cc(C#C[C@H]3O[C@H](CO)[C@@H](O)[C@H](O)[C@@H]3O)c3[nH]ncc3c2)c[nH]c1=O [Compound 79, 3-methyl-5-[7-[2-[(2R,3S,4R,5S,6R)-3,4,5-trihydroxy-6-(hydroxymethyl)tetrahydropyran-2-yl]ethynyl]-1H-indazol-5-yl]-1H-pyridin-2-one]	0.4 ± 0.1
CCN(CC)S(=O)(=O)c1ccc(C)c(-c2cc(C#C[C@H]3O[C@H](CO)[C@@H](O)[C@H](O)[C@@H]3O)c3[nH]ncc3c2)c1 [Compound 93, N,N-diethyl-4-methyl-3-[7-[2-[(2R,3S,4R,5S,6R)-3,4,5-trihydroxy-6-(hydroxymethyl)tetrahydropyran-2-yl]ethynyl]-1H-indazol-5-yl]benzenesulfonamide]	1
OC[C@H]1O[C@H](C#Cc2cc(C3=CCCC3)cc3cn[nH]c23)[C@@H](O)[C@@H](O)[C@@H]1O [Compound 70, (2R,3S,4R,5S,6R)-2-[2-[5-(cyclopenten-1-yl)-1H-indazol-7-yl]ethynyl]-6-(hydroxymethyl)tetrahydropyran-3,4,5-triol]	0.2 ± 0.04
Cc1ccncc1-c1cc(C#C[C@H]2O[C@H](CO)[C@@H](O)[C@H](O)[C@@H]2O)c2[nH]ncc2c1 [Compound 77, (2R,3S,4R,5S,6R)-2-(hydroxymethyl)-6-[2-[5-(4-methyl-3-pyridyl)-1H-indazol-7-yl]ethynyl]tetrahydropyran-3,4,5-triol]	0.1 ± 0.02
